# Molecular target: T1, chimeric receptor having the extra-cellular domain of EGF-R and the intra-cellular domain of Her2 (Homo sapiens, UniProt P04626)
# T1 construct: fused on or other part: the same chimera
# Experiment: EGF-induced Her2-driven BrdU incorporation
# Assay type: cell-based
# Details: read-out: BrdU HER 2 driven IC50
# Description: The cellular/catalytic assays described herein are performed in an ELISA format. The general procedure is as follows: a compound is introduced to cells expressing the test kinase, either naturally or recombinantly, for a selected period of time after which, if the test kinase is a receptor, a ligand known to activate the receptor is added. The cells are lysed and the lysate is transferred to the wells of an ELISA plate previously coated with a specific antibody recognizing the substrate of the enzymatic phosphorylation reaction. Non-substrate components of the cell lysate are washed away and the amount of phosphorylation on the substrate is detected with an antibody specifically recognizing phosphotyrosine compared with control cells that were not contacted with a test compound. The cellular/biologic assays described herein measure the amount of DNA made in response to activation of a test kinase, which is a general measure of a proliferative response. The general procedure for this assay is as follows: a compound is introduced to cells expressing the test kinase, either naturally or recombinantly, for a selected period of time after which, if the test kinase is a receptor, a ligand known to activate the receptor is added. After incubation at least overnight, a DNA labeling reagent such as Bromodeoxyuridine (BrdU) or 3H-thymidine is added. The amount of labeled DNA is detected with either an anti-BrdU antibody or by measuring radioactivity and is compared to control cells not contacted with a test compound.
# EGF-Induced Her2-Driven BrdU Incorporation
# Protocol • (1) Cells-are seeded at 8000 cells/well in DMEM, 10% CS, 2mM Gln in a 96-well plate. Cells are incubated overnight at 37° C. in 5% CO2. • (2) After 24 hours, the cells are washed with PBS, and then are serum starved in serum free medium (0% CS DMEM with 0.1% BSA) for 24 hours. • (3) On day 3, ligand (EGF=2 nM, prepared in DMEM with 0.1% BSA) and test compounds are added to the cells simultaneously. The negative control wells receive serum free DMEM with 0.1% BSA only, the positive control cells receive the ligand (EGF) but no test compound. Test compounds are prepared in serum free DMEM with ligand in a 96 well plate, and serially diluted for 7 test concentrations. • (4) After 20 hours of ligand activation, diluted BrdU labeling reagent (1:100 in DMEM, 0.1% BSA) is added and the cells are incubated with BrdU (final concentration=10 μM) for 1.5 hours. • (5) After incubation with labeling reagent, the medium is removed by decanting and tapping the inverted plate on a paper towel. FixDenat solution is added (50 μl/well) and the plates are incubated at room temperature for 45 minutes on a plate shaker. • (6) The FixDenat solution is thoroughly removed by decanting and tapping the inverted plate on a paper towel. Milk is added (5% dehydrated milk in PBS, 200 μ/well) as a blocking solution and the plate is incubated for 30 minutes at room temperature on a plate shaker. • (7) The blocking solution is removed by decanting and the wells are washed once with PBS. Anti-BrdU-POD solution (1:100 dilution in PBS, 1% BSA) is added (100 μl/well) and the plate is incubated for 90 minutes at room temperature on a plate shaker. • (8) The antibody conjugate is thoroughly removed by decanting and rinsing the wells 5 times with PBS, and the plate is dried by inverting and tapping on a paper towel. • (9) TMB substrate solution is added (100 μl/well) and incubated for 20 minutes at room temperature on a plate shaker until color development is sufficient for photometric detection. • (10) The absorbance of the samples are measured at 410 nm (in “dual wavelength” mode with a filter reading at 490 nm, as a reference wavelength) on a Dynatech ELISA plate reader.
# T1 sequence (P04626 676-1255 limits assumed, change not shown): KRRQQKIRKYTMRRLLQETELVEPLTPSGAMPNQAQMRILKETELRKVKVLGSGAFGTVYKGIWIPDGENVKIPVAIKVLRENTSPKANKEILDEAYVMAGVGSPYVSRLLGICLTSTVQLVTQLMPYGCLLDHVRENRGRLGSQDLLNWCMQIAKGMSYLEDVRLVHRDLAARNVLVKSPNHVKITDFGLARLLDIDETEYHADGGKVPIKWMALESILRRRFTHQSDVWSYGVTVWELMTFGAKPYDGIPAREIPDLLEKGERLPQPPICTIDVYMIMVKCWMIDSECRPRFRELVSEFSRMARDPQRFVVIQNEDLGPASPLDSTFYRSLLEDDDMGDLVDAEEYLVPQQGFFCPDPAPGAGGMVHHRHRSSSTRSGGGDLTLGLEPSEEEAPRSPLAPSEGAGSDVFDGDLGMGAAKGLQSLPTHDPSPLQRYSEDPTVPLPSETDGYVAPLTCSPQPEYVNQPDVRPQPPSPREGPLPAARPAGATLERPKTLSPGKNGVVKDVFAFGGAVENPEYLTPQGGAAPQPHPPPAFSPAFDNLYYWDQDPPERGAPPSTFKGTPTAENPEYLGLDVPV
row,IC50,Structure (SMILES)
1,31.9 µM,"COc1ccc(/C=C2/C(=O)Nc3ccccc32)cc1C1CCCCC1 [Example 12, 3-(3-Cyclohexyl-4-methoxybenzylidene)-1,3-dihydroindol-2-one]"
2,9.6 µM,"CC(C)c1cc(/C=C2/C(=O)Nc3ccc(Br)cc32)cc(C(C)C)c1OCCN1CCOCC1 [Example 57, 5-Bromo-3-[3,5-diisopropyl-4-(2-morpholin-4-ylethoxy)benzylidene]-1,3-dihydroindol-2-one]"
3,9.3 µM,"COc1ccc(/C=C2/C(=O)Nc3ccc(F)cc32)cc1C1CCCC1 [Example 11, 3-(3-Cyclopentyl-4-methoxybenzylidene)-5-fluoro-1,3-dihydroindol-2-one]"
4,7.1 µM,"CC(C)c1cc(/C=C2/C(=O)Nc3ccc(Cl)cc32)cc(C(C)C)c1OCCN1CCOCC1 [Example 24, 5-chloro-3-[3,5-diisopropyl-4-(2-morpholin-4-ylethoxy)-benzylidene]-1,3-dihydroindol-2-one]"
5,> 50 µM,"COc1ccc(/C=C2/C(=O)Nc3ccc(CCN4CCOCC4)cc32)cc1-c1ccsc1 [Example 26, 3-(4-Methoxy-3-thiophen-3-ylbenzylidene)-5-(2-morpholin-4-yl-ethyl)-1,3-dihydroindol-2-one]"
6,28.8 µM,"COc1cc(/C=C2/C(=O)Nc3ccccc32)c(-c2ccc3ccccc3c2)cc1OC [Example 62, 3-(4,5-Dimethoxy-2-naphthalen-2-ylbenzylidene)-1,3-dihydroindol-2-one]"
7,4.7 µM,"COC(=O)c1ccc2c(c1)/C(=C\c1cc(C(C)C)c(OC)c(C(C)C)c1)C(=O)N2 [Example 6, 3-(3,5-Diisopropyl-4-methoxybenzylidene)-2-oxo-2,3-dihydro-1H-indole-5-carboxylic acid methyl ester]"
8,3.5 µM,"CC1(C)CCc2cc(C=C3C(=O)Nc4ccc(Br)cc43)ccc2O1 (racemic) [Example 34, 5-Bromo-3-(2,2-dimethylchroman-6-ylmethylene)-1,3-dihydroindol-2-one]"
9,13.5 µM,"CCOc1cccc(-c2cc(OC)c(OC)cc2/C=C2/C(=O)Nc3ccccc32)c1 [Example 58, 3-(3′-Ethoxy-4,5-dimethoxybiphenyl-2-ylmethylene)-1,3-dihydroindol-2-one]"
